Measurements as given in the supplement of paper PMC6045584.
± gives the standard deviation of the averaged measurements.

Tests used:
17-AAG = compound: C=CCNC1=C2C[C@@H](C)C[C@H](OC)[C@H](O)[C@@H](C)/C=C(\C)[C@H](OC(N)=O)[C@@H](OC)/C=C\C=C(/C)C(=O)NC(=CC1=O)C2=O [17-AAG]; test: surviving fraction relative to DMSO-only wells; higher = less growth inhibition; conditions: exposure time: 5 days
How it was run: (§1)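 Log-phase tumour cell lines, 250–500 cells per well in 384-well plates, received inhibitors at 0.5, 1, 5, 10, 50, 100, 500 and 1000 nM continuously for five days, starting 24 hours after seeding. Viability was quantified with CellTiter-Glo luminescence and normalised to the median of DMSO-only wells to give surviving fraction. Three screens were run per line, and a line stayed in only with replicate Pearson r >0.7 and median Z' >0.3.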

DECITABINE = compound: Nc1ncn([C@H]2C[C@H](O)[C@@H](CO)O2)c(=O)n1 [DECITABINE]; test: as above; conditions: exposure time: 5 days
How it was run: as §1

Row | Test System | surviving fraction (17-AAG; 0.5 nM) | surviving fraction (17-AAG; 1 nM) | surviving fraction (17-AAG; 5 nM) | surviving fraction (17-AAG; 10 nM) | surviving fraction (17-AAG; 50 nM) | surviving fraction (17-AAG; 100 nM) | surviving fraction (17-AAG; 500 nM) | surviving fraction (17-AAG; 1000 nM) | surviving fraction (DECITABINE; 0.5 nM) | surviving fraction (DECITABINE; 1 nM) | surviving fraction (DECITABINE; 5 nM) | surviving fraction (DECITABINE; 10 nM) | surviving fraction (DECITABINE; 50 nM) | surviving fraction (DECITABINE; 100 nM) | surviving fraction (DECITABINE; 500 nM) | surviving fraction (DECITABINE; 1000 nM)
1 | HCC1395 BREAST | 0.823 ± 0.02 | 0.862 ± 0.035 | 0.957 ± 0.12 | 0.93 ± 0.067 | 1.21 ± 0.12 | 1.13 ± 0.18 | 0.899 ± 0.15 | 0.803 ± 0.1 | 1.19 ± 0.054 | 0.956 ± 0.1 | 1.34 ± 0.079 | 1.23 ± 0.072 | 1.26 ± 0.045 | 1.25 ± 0.086 | 1.17 ± 0.073 | 1.09 ± 0.031
2 | HCC1806 BREAST | 0.78 ± 0.076 | 0.783 ± 0.065 | 0.571 ± 0.12 | 0.123 ± 0.056 | 0.0273 ± 0.0015 | 0.0247 ± 0.0015 | 0.023 ± 0.001 | 0.0243 ± 0.0015 | 0.937 ± 0.083 | 0.698 ± 0.11 | 0.531 ± 0.02 | 0.483 ± 0.031 | 0.256 ± 0.039 | 0.159 ± 0.0035 | 0.083 ± 0.012 | 0.0507 ± 0.008
3 | HCC1954 BREAST | 0.387 ± 0.00071 | 0.292 ± 0.071 | 0.195 ± 0.011 | 0.131 ± 0.03 | 0.0668 ± 0.012 | 0.0498 ± 0.0053 | 0.0425 ± 0.0042 | 0.045 ± 0.0064 | 1.07 ± 0.19 | 1.05 ± 0.13 | 1.32 ± 0.13 | 1.32 ± 0.05 | 1.13 ± 0.13 | 1.22 ± 0.023 | 1.29 ± 0.044 | 1.08 ± 0.044
4 | HCT15 LARGE INTESTINE | 0.858 ± 0.04 | 0.852 ± 0.011 | 0.864 ± 0.029 | 0.792 ± 0.078 | 0.479 ± 0.0076 | 0.264 ± 0.0079 | 0.072 ± 0.0027 | 0.0573 ± 0.0025 | 1 ± 0.02 | 0.982 ± 0.056 | 0.967 ± 0.021 | 0.961 ± 0.017 | 1.05 ± 0.032 | 0.987 ± 0.032 | 0.835 ± 0.026 | 0.893 ± 0.032
5 | HELA CERVIX | 0.944 ± 0.039 | 0.921 ± 0.037 | 0.924 ± 0.045 | 0.906 ± 0.043 | 0.68 ± 0.092 | 0.482 ± 0.038 | 0.219 ± 0.015 | 0.0948 ± 0.0088 | 1.03 ± 0.043 | 0.9852 ± 0.0096 | 1.05 ± 0.043 | 1 ± 0.017 | 1.1 ± 0.03 | 1.08 ± 0.017 | 1.15 ± 0.065 | 0.944 ± 0.032
6 | HOS BONE | 0.924 ± 0.029 | 0.932 ± 0.037 | 0.934 ± 0.027 | 0.93 ± 0.017 | 0.914 ± 0.024 | 0.442 ± 0.11 | 0.0503 ± 0.0011 | 0.0427 ± 0.0032 | 1.01 ± 0.039 | 1.02 ± 0.018 | 1.03 ± 0.031 | 0.995 ± 0.011 | 1.06 ± 0.015 | 1.02 ± 0.015 | 0.8753 ± 0.0038 | 0.731 ± 0.029
7 | HOSMNG BONE | 0.981 ± 0.039 | 0.977 ± 0.072 | 0.972 ± 0.051 | 0.978 ± 0.068 | 1.08 ± 0.028 | 0.506 ± 0.014 | 0.14 ± 0.014 | 0.11 ± 0.0031 | 1.04 ± 0.043 | 1.03 ± 0.057 | 1.02 ± 0.061 | 1.02 ± 0.072 | 1.1 ± 0.036 | 1.12 ± 0.086 | 1.1 ± 0.12 | 1.11 ± 0.046
8 | HSSYII SYNOVIAL | 0.869 ± 0.049 | 0.812 ± 0.035 | 0.888 ± 0.045 | 0.868 ± 0.022 | 0.764 ± 0.039 | 0.519 ± 0.017 | 0.122 ± 0.0035 | 0.114 ± 0.0093 | 0.972 ± 0.032 | 1.01 ± 0.046 | 0.933 ± 0.048 | 0.938 ± 0.073 | 0.86 ± 0.049 | 0.696 ± 0.024 | 0.48 ± 0.012 | 0.348 ± 0.036
9 | HT1080 SOFT TISSUE | 0.969 ± 0.031 | 1 ± 0.061 | 1.08 ± 0.015 | 1.048 ± 0.01 | 0.389 ± 0.017 | 0.204 ± 0.028 | 0.148 ± 0.0085 | 0.146 ± 0.0015 | 1.1 ± 0.043 | 1.08 ± 0.042 | 1.07 ± 0.024 | 1.1 ± 0.058 | 0.964 ± 0.026 | 0.928 ± 0.083 | 0.665 ± 0.06 | 0.627 ± 0.016
10 | HU09 BONE | 0.918 ± 0.045 | 0.935 ± 0.14 | 0.542 ± 0.025 | 0.131 ± 0.038 | 0.0283 ± 0.00058 | 0.0237 ± 0.0031 | 0.0233 ± 0.0029 | 0.0233 ± 0.0038 | 0.982 ± 0.083 | 0.968 ± 0.081 | 1.12 ± 0.13 | 0.997 ± 0.072 | 1.17 ± 0.13 | 1.04 ± 0.027 | 0.95 ± 0.084 | 0.847 ± 0.034
11 | HUO3N1 BONE | 0.881 ± 0.025 | 0.888 ± 0.042 | 0.97 ± 0.022 | 0.872 ± 0.046 | 0.591 ± 0.046 | 0.443 ± 0.025 | 0.359 ± 0.026 | 0.316 ± 0.036 | 0.958 ± 0.022 | 0.99 ± 0.024 | 1.03 ± 0.056 | 1.05 ± 0.019 | 1.04 ± 0.022 | 1 ± 0.014 | 0.901 ± 0.017 | 0.879 ± 0.025
12 | JIMT1 BREAST | 0.833 ± 0.034 | 0.823 ± 0.062 | 0.84 ± 0.046 | 0.754 ± 0.1 | 0.0973 ± 0.016 | 0.0685 ± 0.0066 | 0.062 ± 0.0026 | 0.0647 ± 0.0033 | 1.04 ± 0.021 | 0.999 ± 0.032 | 1 ± 0.018 | 0.9743 ± 0.0064 | 0.933 ± 0.038 | 0.819 ± 0.048 | 0.546 ± 0.036 | 0.471 ± 0.03
13 | JURKAT HAEMATOPOIETIC AND LYMPHOID TISSUE | 1.02 ± 0.014 | 0.997 ± 0.037 | 1 ± 0.023 | 0.998 ± 0.014 | 0.951 ± 0.032 | 0.886 ± 0.021 | 0.132 ± 0.0082 | 0.0577 ± 0.0015 | 1 ± 0.04 | 1.06 ± 0.025 | 0.823 ± 0.022 | 0.746 ± 0.034 | 0.121 ± 0.0055 | 0.072 ± 0.003 | 0.0327 ± 0.00058 | 0.028 ± 0.001
14 | KPD BONE | 0.907 ± 0.085 | 0.894 ± 0.05 | 0.913 ± 0.01 | 0.828 ± 0.084 | 0.246 ± 0.018 | 0.111 ± 0.011 | 0.0627 ± 0.0015 | 0.0607 ± 0.0045 | 0.916 ± 0.057 | 0.919 ± 0.053 | 0.801 ± 0.022 | 0.692 ± 0.056 | 0.534 ± 0.023 | 0.464 ± 0.012 | 0.379 ± 0.026 | 0.353 ± 0.044
15 | LM7 BONE | 0.755 ± 0.098 | 0.728 ± 0.03 | 0.763 ± 0.026 | 0.722 ± 0.01 | 0.188 ± 0.0075 | 0.121 ± 0.0085 | 0.0937 ± 0.0021 | 0.0923 ± 0.0068 | 0.939 ± 0.025 | 1 ± 0.035 | 1.05 ± 0.05 | 0.983 ± 0.061 | 0.939 ± 0.027 | 0.91 ± 0.042 | 0.749 ± 0.044 | 0.742 ± 0.048
16 | LNCAP PROSTATE | 1.15 ± 0.1 | 1.14 ± 0.025 | 0.769 ± 0.12 | 0.359 ± 0.028 | 0.114 ± 0.009 | 0.0687 ± 0.012 | 0.0517 ± 0.0021 | 0.0523 ± 0.0064 | 0.917 ± 0.037 | 1.02 ± 0.11 | 0.954 ± 0.083 | 1.01 ± 0.11 | 0.785 ± 0.02 | 0.695 ± 0.1 | 0.634 ± 0.044 | 0.522 ± 0.0079
17 | MCF7 BREAST | 0.842 ± 0.015 | 0.817 ± 0.027 | 0.811 ± 0.021 | 0.777 ± 0.058 | 0.429 ± 0.0029 | 0.329 ± 0.0083 | 0.271 ± 0.015 | 0.275 ± 0.012 | 0.932 ± 0.022 | 0.906 ± 0.065 | 0.887 ± 0.02 | 0.803 ± 0.02 | 0.843 ± 0.04 | 0.861 ± 0.026 | 0.842 ± 0.034 | 0.83 ± 0.043
18 | MDAMB134 BREAST | 0.609 ± 0.036 | 0.648 ± 0.053 | 0.573 ± 0.066 | 0.667 ± 0.051 | 0.574 ± 0.018 | 0.519 ± 0.011 | 0.524 ± 0.012 | 0.47 ± 0.018 | 0.979 ± 0.082 | 1.06 ± 0.26 | 1.04 ± 0.1 | 1.02 ± 0.023 | 1.1 ± 0.12 | 1.25 ± 0.059 | 1.15 ± 0.042 | 1.22 ± 0.016
19 | MDAMB157 BREAST | 0.897 ± 0.082 | 0.854 ± 0.053 | 0.848 ± 0.18 | 0.482 ± 0.098 | 0.233 ± 0.018 | 0.214 ± 0.038 | 0.163 ± 0.024 | 0.147 ± 0.008 | 0.998 ± 0.013 | 0.907 ± 0.046 | 0.922 ± 0.13 | 0.897 ± 0.065 | 0.632 ± 0.042 | 0.547 ± 0.058 | 0.41 ± 0.075 | 0.382 ± 0.059
20 | MDAMB231 BREAST | 0.95 ± 0.019 | 0.943 ± 0.03 | 0.994 ± 0.033 | 1.01 ± 0.022 | 0.534 ± 0.019 | 0.263 ± 0.0075 | 0.103 ± 0.0031 | 0.0973 ± 0.0038 | 1 ± 0.034 | 0.986 ± 0.024 | 1.01 ± 0.028 | 1 ± 0.022 | 1.01 ± 0.021 | 0.965 ± 0.013 | 0.865 ± 0.016 | 0.835 ± 0.039
21 | MDAMB361 BREAST | 0.765 ± 0.078 | 0.728 ± 0.036 | 0.454 ± 0.036 | 0.332 ± 0.047 | 0.278 ± 0.023 | 0.267 ± 0.015 | 0.324 ± 0.014 | 0.313 ± 0.038 | 0.895 ± 0.057 | 0.909 ± 0.034 | 0.938 ± 0.08 | 0.875 ± 0.038 | 0.906 ± 0.19 | 0.915 ± 0.17 | 0.99 ± 0.2 | 0.921 ± 0.084
